Results published in patent US20240197688A1, “COMBINATION MEDICINE FOR PREVENTING/TREATING DYSLIPIDEMIA OR CARDIOVASCULAR DISEASE” (KOWA COMPANY, LTD., priority 2021, published 2024).

How the values were obtained:
Format in all cases: in vivo
Wistar rat = test: Effect of combination use of compound A and compound B on TG index of rat; details: male Wistar rat, oral once a day for 2 weeks; compound A 0.3 mg/kg, compound B 30 mg/kg, alone or in combination; actual value
From the text: Male rats (7-week-old, Wistar [Crlj: WI], Charles River Laboratories Japan, Inc.) were used for an experiment. Blood was collected from the jugular vein under satiation, and the rats were divided into four groups (N=6) based on TG and TC in the plasma and body weights. For two weeks from the next day of the grouping, each of a solvent (0.5% carboxymethyl cellulose aqueous solution: CMC), a compound A (pemafibrate) alone, a compound B (bempedoic acid) alone, and a combination of pemafibrate and bempedoic acid was orally administered once per day. After four hours from the final administration of the drug, blood was collected under isoflurane anesthesia to obtain plasma. Parameters in the blood were measured using an automated analyzer (Labospect 003, Hitachi High-Technologies Corporation). A lipid content in the liver was measured using the method described in J. Biol. Chem. 226 (1), 497-509 (1957) (FOLCH method). A TG index (%) was expressed as a ratio of a product of a blood TG concentration and a TG content in the liver of a sample to that of Control. In the present Example, the compound A was prepared and used according to the method described in Patent Document 1. […] Comparison between the control group and each of the drug administration groups was performed by a multiple comparison test of Dunnett, and a risk rate of less than 5% was determined to have a significant difference.

PPARα gene = test: Effect of combination use on expression level of PPARα gene in liver of rat (quantitative PCR); details: male Wistar rat, oral once a day for 2 weeks; compound A 0.3 mg/kg, compound B 30 mg/kg, alone or in combination; β-actin internal standard; actual value
From the text: Male rats (7-week-old, Wistar [Crlj: WI], Charles River Laboratories Japan, Inc.) were used for an experiment. Blood was collected from the jugular vein under satiation, and the rats were divided into four groups (N=6) based on TG and TC in the plasma and body weights. For two weeks from the next day of the grouping, each of a solvent (0.5% carboxymethyl cellulose aqueous solution: CMC), a compound A (pemafibrate) alone, a compound B (bempedoic acid) alone, and a combination of pemafibrate and bempedoic acid was orally administered once per day. After four hours from the final administration of the drug, blood was collected under isoflurane anesthesia to obtain the liver. RNA in the liver was extracted using ISOGEN (Nippon Gene Co., Ltd.), and cDNA was prepared using a high-capacity cDNA reverse transcription kit (Thermo Fischer Scientific). Quantitative PCR (polymerase chain reaction) was performed using the prepared cDNA, and the relative value of the expression level of the PPARα gene was calculated using β-actin gene as an internal standard. […]
The results were presented by an average value standard error. Comparison between the control group and each of the drug administration groups was performed by a multiple comparison test of Dunnett, and a risk rate of less than 5% was determined to have a significant difference.

db/db mice = test: Effect of combination use on total cholesterol content in liver of db/db mice; details: male db/db mice, oral once a day for 2 weeks; compound A 0.3 mg/kg, compound B 10 mg/kg, alone or in combination
From the text: Male mice (8-week-old, db/db: BKS.Cg−+Leprdb/+Leprdb/Jcl, Lean: BKS. Cg−m+/m+/Jcl, CLEA Japan, Inc.) were used for an experiment. They were divided into four groups (N=8) based on body weights. For two weeks from the next day of the grouping, each of a solvent (0.5% methylcellulose aqueous solution: MC), a compound A (pemafibrate) alone, a compound B (bempedoic acid) alone, and a combination of pemafibrate and bempedoic acid was orally administered once per day. After four hours from the final administration of the drug, the liver was extracted under isoflurane anesthesia, and the TC concentration in the liver was measured using the FOLCH method described above. • Group 1: Control (Solvent Only) • Group 2: 0.3 mg/kg of Compound A • Group 3: 10 mg/kg of Compound B • Group 4: 0.3 mg/kg of Compound A and 10 mg/kg of Compound B The results were presented by an average value±standard error. Comparison between the control group and each of the drug administration groups was performed by a multiple comparison test of Tukey, and a risk rate of less than 5% was determined to have a significant difference.

| SMILES | TG index (ratio of product of blood TG concentration and liver TG content to that of Control) (Wistar rat) [%] | expression level of PPARα gene (Ppara) in the liver relative to Control (PPARα gene) [times] | total cholesterol content in the liver compared to Control (db/db mice) [%] |
| --- | --- | --- | --- |
| CC(C)(CCCCCC(O)CCCCCC(C)(C)C(=O)O)C(=O)O [compound B, 8-hydroxy-2,2,14,14-tetramethylpentadecanedioic acid] | 60.6 | 1.22 | 87.0 |
| CC[C@@H](Oc1cccc(CN(CCCOc2ccc(OC)cc2)c2nc3ccccc3o2)c1)C(=O)O [compound A, (R)-2-[3-[[N-(benzoxazole-2-yl)-N-3-(4-methoxyphenoxy)propyl]aminomethyl]phenoxy]butyric acid] | 65.4 | 1.17 | 86.2 |
